US12545677B2, “Compounds useful as factor XIa inhibitors” (JANSSEN PHARMACEUTICA NV, priority 2020, dated 2026)
pIC50: −log10 of the molar value.

Experiments:
[1] = system: HepG2 cells; assay: Cell viability, Cell Titer Fluor Assay, parallel to Seahorse assay; type: cell-based; settings: Homo sapiens, 1 h, one-hour incubation, read-out: IC50, cellular viability
Method: The purpose of this assay was to investigate the effect of the compound of formula (I-A) on mitochondrial respiration in HepG2 cells using the Agilent Seahorse XFe96 analyzer. Cell viability was also determined in HepG2 cells in parallel to the Seahorse assay.
Cell viability measurements: HepG2 cells were seeded onto black-walled 96 well plates at a density of 40,000 cells/well in EMEM containing 10% HI FBS and 1× Pen/Strep and allowed to attach overnight. The next day, test compounds were prepared and diluted in EMEM. Following a one-hour incubation with the test article(s), cell viability was assessed using the Cell Titer Fluor Assay (Promega, Cat no. G6081) according to the manufacturer's protocol. The viability assay monitors activity of […], a ubiquitous protease found in live cells.
Data Analyses: Mitochondrial SRC (spare respiratory capacity) was calculated by subtracting the rate of the basal respiration from the rate of the maximal respiration. SRC values were automatically generated by the Report Generator (Agilent Technologies-version 4.0). All experiments were run in triplicate and the mean and standard deviations were calculated for each test concentration. All data were normalized to vehicle controls.
IC50 values were determined by nonlinear regression and fitting of the dose response curves to a […] equation with variable slope (Hill coefficient): […]

[2] = system: human hepatocytes; assay: In vitro metabolism in human cryopreserved hepatocytes; type: in vitro ADME
Method: In Vitro Metabolism of in Human Cryopreserved Hepatocytes
The human hepatocytes used for in vitro metabolism of the compound of formula (I-A) were purchased from Bioreclamation IVT (Westbury, NY); cryopreserved human hepatocytes (lot number: UYG).
Cryopreserved hepatocytes were rapidly thawed […] vials were placed in a 37° C. water bath for approximately 90 sec, then immediately added to pre-warmed hepatocyte thawing media. The cells were resuspended within the media and then centrifuged at 700×g for 7 minutes at room temperature.
The supernatant was discarded, and the cells were resuspended in 2 mL of Krebs-Henseleit buffer containing 12.5 mM HEPES pH 7.4 (KHB). Cell viability and yield were determined by Trypan Blue exclusion. The hepatocytes were then diluted in KHB to a cell concentration of 2×10^6 cells/mL (500 μL/well in 10 mL glass tubes). The tubes were placed on a rotary shaker in a humidifier incubator supplied with 5% CO2 and allowed 15 minutes acclimation at 37° C. prior to use. The compound of formula (I-A) or positive control, diclofenac (10 μM), in KHB was then added to the hepatocytes to achieve a final concentration of 10 μM and cell concentration of 1×10^6 cells/mL (1000 μL final incubation volume). Cells were incubated for zero or 3 hours. At the end of the incubation period, the cells were quenched with 6-volumes of ice-cold acetonitrile containing 0.02% formic acid, vortexed and sonicated (5 min). Precipitated proteins were pelleted by centrifugation (3000 rpm, 10 minutes, 4° C.) and the supernatant was transferred to borosilicate tubes and evaporated to dryness under a gentle stream of nitrogen.
The resulting residue after evaporation was reconstituted in 250 μL of water:acetonitrile (9:1 v/v) containing 0.01% formic acid with sonication and vortexing to aid solubilization of drug-derived materials prior to filtration using 0.45μ nylon filter at 10,000×g at room temperature for 10 minutes. The filtrate was transferred to a 96-well plate for liquid chromatography/ultraviolet/mass spectrometry (LC-UV/MS) analysis.
LC/UV/MS (Liquid Chromatography/Ultraviolet/Mass Spectrometry)
LTQ/Orbitrap (Thermo Scientific, Inc., Bremen, Germany) was carried out by data-dependent accurate mass measurements at resolving powers of 15,000 for full scan MS and 7,500 for MS^2 (also known as MS/MS or tandem mass spec) under single ion locked mass mode.
Quantification of the unchanged drug and its metabolites was carried out by integration of the individual chromatographically separated UV peaks and provided the percentage of total peak area.

| SMILES | pIC50 [1] | turnover in human hepatocytes ([2]; 10 μM, 1×10^6 cells/mL, 3 hours) | major metabolic softspot ([2]; human hepatocytes) | metabolites generated from the incubation ([2]; human hepatocytes, 10 μM, 3 hours) | identified as metabolite of the compound of formula (I-A) ([2]; human hepatocytes, carboxylic acid metabolite) |
| --- | --- | --- | --- | --- | --- |
| O=C1C=C(c2c(-n3cnnn3)ccc(Cl)c2F)C[C@H]2CC[C@@H](c3ncc(-c4ccnc(CO)c4F)[nH]3)N12 [Compound of formula (I-A), (3S,8aR)-7-(3-Chloro-2-fluoro-6-(1H-tetrazol-1-yl)phenyl)-3-(5-(3-fluoro-2-(hydroxymethyl)pyridin-4-yl)-1H-imidazol-2-yl)-2,3,8,8a-tetrahydroindolizin-5(1H)-one] | < 4.00 | low turnover | (3-fluoropyridin-2-yl) methanol moiety | three oxidative and two glucuronide metabolites | – |
| O=C(O)c1nccc(-c2cnc([C@@H]3CC[C@@H]4CC(c5c(-n6cnnn6)ccc(Cl)c5F)=CC(=O)N43)[nH]2)c1F [Compound of formula (II-A), 4-(2-((3S,8aR)-7-(3-chloro-2-fluoro-6-(1H-tetrazol-1-yl)phenyl)-5-oxo-1,2,3,5,8,8a-hexahydroindolizin-3-yl)-1H-imidazol-5-yl)-3-fluoropicolinic acid] | – | – | – | – | a metabolite in human hepatocytes |
